Results on one molecule are retold here after US20220002816A1, “IDENTIFICATION OF JUND TARGET GENES FOR INHIBITION OF PROSTATE CANCER CELL GROWTH” (Center for Cancer Research & Therapeutic Development, Clark …, priority 2018, published 2022).

Holding throughout (format): cell-based, Human
For test [1], the system named is DU145 JunD overexpressed (D1) cells. The experiment in a line: Cell proliferation assay (cell counting) after JQ1 treatment. Particulars: 5 μM JQ1, 72 hrs, DU145 D1 (JunD overexpressing) cells, vs DMSO control, p<0.001. As to the method:
(§1) Human prostate cancer cell lines (PC3 and DU145) were purchased from ATCC (Manassas, Va.). Cells were cultured in the recommended growth media [MEM media supplemented with 5% fetal bovine serum (FBS)] in 100% humidity at 37° C. with 5% CO2 as described previously. DU145 cells overexpressing JunD (D1), generated from a previous study were cultured as above, with an addition of […] G418 [29].
(§2) DU145 vector and DU145 JunD overexpressed (D1) cells plated at a density of 2×10^4 cells/ml in 24 well plates (for cell proliferation assays) or at a density of 1.5×10^5 cell/ml in 6 well plates (for cell lysates) were treated in the presence or absence of 5 μM JQ1 for 72 hrs. Control cells were treated with DMSO. Cells were then counted using a hemacytometer and cell lysates were collected for western blot analyses.

The subject of test [2] is DU145 vector cells. Described as above. Particulars: 5 μM JQ1, 72 hrs, vs DMSO control, p<0.001. As to the method:
as §1, §2

For test [3], the system named is JunD target genes protein levels in DU145 JunD overexpressed (D1) cells. The test is described as follows: Western blot of JunD target gene protein levels after JQ1 treatment. Particulars: 5 μM JQ1, 72 hrs. As to the method:
as §2
(§3) Following siRNA transient transfections, PC3 and DU145 cell lysates from several independent experiments were collected as previously described. In brief, equal amounts of protein (50 μg) were separated by electrophoresis using 10% SDS-polyacrylamide gels and then transferred to PVDF membranes (Millipore, Billerica, Mass.). After being blocked with 5% milk, the membranes were incubated with specific primary antibodies (1:800 dilution for JunD; 1:500 dilution for anti-PRDX3, anti-CDK2, anti-CDK4, anti-KIF2C, anti-EIF1, anti-PEA15, anti-CCNA1, anti-ADRA2B, anti-TCF4, anti-ANAX2, anti-ELMO2, and anti-ERO1-La; 1:200 dilution for anti-PLCD4, anti-c-MYC, and anti-PTMA; 1:3000 dilution for anti-α-Tubulin) overnight at 4° C. and then incubated with appropriate horseradish peroxidase-conjugated secondary antibody for 1 h. […] The relative intensities of specific protein were determined by ImageJ software (NIH version: 1.8.0_112).
(A western blot detects proteins with antibodies after separation by electrophoresis.)

Test [4] concerns JunD target genes protein levels in DU145 vector cells. Described as above. Particulars: 5 μM JQ1, 72 hrs. The method, then:
as §2, §3

Consider `Cc1sc2c(c1C)C(c1ccc(Cl)cc1)=N[C@@H](CC(=O)OC(C)(C)C)c1nnc(C)n1-2` [JQ1], for which the cell proliferation entry in test [1] and in test [2] was “significantly reduced” each time. The “JunD target genes protein levels” value in test [3] and in test [4] was “decreased” throughout.
